These are literature values, as cited in PMC11478287, “Design and Synthesis of Pyridyl and 2-Hydroxyphenyl Chalcones with Antitubercular Activity” (Molecules, 2024).

Structures are written as SMILES.

The series concerns PtpA. More on the design: method as in PMID 18930396. The note with it: cited from earlier work.

With `COc1cc(C(=O)/C=C/c2ccc3c(c2)OCO3)cc(OC)c1OC` [Compound 2], the “PtpA inhibition activity (in words)” value is listed as “very low PtpA inhibition activity”.
